The text below walks through data of patent publication US20110207783A1, “RENIN INHIBITORS” (priority 2007, published 2011).

For one test, the target named is T1, renin in human plasma (Homo sapiens, UniProt P00797).
T1 construct: from tissue; host or cells: human plasma from 10 normal donors, spiked with human recombinant renin (3 pM)
T1 sequence (P00797 67-406): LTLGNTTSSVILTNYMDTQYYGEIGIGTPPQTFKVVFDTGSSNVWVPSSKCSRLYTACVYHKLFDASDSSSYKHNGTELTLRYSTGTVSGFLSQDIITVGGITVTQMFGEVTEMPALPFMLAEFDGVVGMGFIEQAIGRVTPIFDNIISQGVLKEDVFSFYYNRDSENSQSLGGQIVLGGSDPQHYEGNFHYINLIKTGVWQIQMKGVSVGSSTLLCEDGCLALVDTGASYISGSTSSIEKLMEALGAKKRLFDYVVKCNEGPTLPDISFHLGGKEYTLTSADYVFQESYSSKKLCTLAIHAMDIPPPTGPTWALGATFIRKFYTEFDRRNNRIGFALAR
Briefly: Inhibition of renin in human plasma. The format is biochemical. Here is the method: The enzymatic in vitro assay was performed in 384-well polypropylene plates (Nunc). The assay buffer consisted of PBS (Gibco BRL) including 1 mM EDTA and 0.1% BSA. The reaction mixture was composed of 80 μL per well of human plasma, enzyme, Ang I-antibodies mix and 5 μL of renin inhibitors in DMSO. The human plasma mix was premixed at 4° C. and consists of • human plasma from 10 normal donors • human recombinant renin (3 pM) • Ang I-antibodies. The mixtures were then incubated at 37° C. for 2 h.
To determine the enzymatic activity and its inhibition, the accumulated Ang I was detected by an enzyme immunoassay (EIA) in 384-well plates (Nunc). 10 μL of the reaction mixture or standards were transferred to immuno plates which were previously coated with a covalent complex of Ang I and bovine serum albumin (Ang I-BSA). 70 μL assay buffer were added and the plates were incubated at 4° C. overnight. The plates were washed 3 times with PBS including 0.01% Tween 20, and then incubated for 2 h at RT with an anti rabbit-peroxidase coupled antibody (WA 934, Amersham). […]

The next test addresses T2, Renin (Homo sapiens, UniProt P00797).
T2 sequence (P00797 67-406): T1 sequence (P00797 67-406)
Briefly: Renin QFRET. The format is biochemical.

`COCCCc1ccc(Cl)c(CN(C(=O)C(CN)Cc2cccnc2N)C2CC2)c1` (centres unmarked) [Example 5, 3-amino-2-[(2-amino-3-pyridinyl)methyl]-N-({2-chloro-5-[3-(methyloxy)propyl]phenyl}methyl)-N-cyclopropylpropanamide]: the figures for the IC50 on renin in human plasma and against Renin were 240 nM and 17 nM, respectively.

What is called IC50 is the concentration needed to halve the response being measured.
